PubChem BioAssay (NCI)
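GI50 is the concentration that inhibits growth by half. TGI: total growth inhibition.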

Tests used:
Assay in all cases: NCI-60 cell line screen, 384-well format
SK-MEL-28 melanoma = system: SK-MEL-28 melanoma
COLO 205 colon = system: COLO 205 colon
MALME-3M melanoma = system: MALME-3M melanoma
NCI-H322M lung = system: NCI-H322M lung
CAKI-1 renal = system: CAKI-1 renal
NCI-H522 lung = system: NCI-H522 lung
HOP-92 NSCLC = system: HOP-92 NSCLC
HCC-2998 colon = system: HCC-2998 colon
SF-539 CNS = system: SF-539 CNS
DU-145 prostate = system: DU-145 prostate
OVCAR-8 ovarian = system: OVCAR-8 ovarian
HL-60(TB) leukemia = system: HL-60(TB) leukemia
UACC-257 melanoma = system: UACC-257 melanoma
SK-OV-3 ovarian = system: SK-OV-3 ovarian
EKVX NSCLC = system: EKVX NSCLC
UACC-62 melanoma = system: UACC-62 melanoma
SF-295 CNS = system: SF-295 CNS
OVCAR-5 ovarian = system: OVCAR-5 ovarian
BT-549 breast = system: BT-549 breast
HT29 colon = system: HT29 colon
NCI-H23 lung = system: NCI-H23 lung
MDA-MB-468 breast = system: MDA-MB-468 breast
786-0 renal = system: 786-0 renal
SNB-19 CNS = system: SNB-19 CNS
SK-MEL-5 melanoma = system: SK-MEL-5 melanoma
SNB-75 CNS = system: SNB-75 CNS
MCF7 breast = system: MCF7 breast
A498 renal = system: A498 renal
T-47D breast = system: T-47D breast
CCRF-CEM leukemia = system: CCRF-CEM leukemia
IGROV1 ovarian = system: IGROV1 ovarian
MDA-MB-231 breast = system: MDA-MB-231 breast
HCT-116 colon = system: HCT-116 colon
RPMI-8226 leukemia = system: RPMI-8226 leukemia
SW-620 colon = system: SW-620 colon
NCI-H460 NSCLC = system: NCI-H460 NSCLC
OVCAR-4 ovarian = system: OVCAR-4 ovarian
A549 NSCLC = system: A549 NSCLC
SF-268 CNS = system: SF-268 CNS
SN12C renal = system: SN12C renal
M14 melanoma = system: M14 melanoma
ACHN renal = system: ACHN renal
HOP-62 NSCLC = system: HOP-62 NSCLC
KM12 colon = system: KM12 colon
HS 578T breast = system: HS 578T breast
LOX IMVI melanoma = system: LOX IMVI melanoma
TK-10 renal = system: TK-10 renal
MDA-MB-435 melanoma = system: MDA-MB-435 melanoma
OVCAR-3 ovarian = system: OVCAR-3 ovarian
RXF 393 renal = system: RXF 393 renal
HCT-15 colon = system: HCT-15 colon
PC-3 prostate = system: PC-3 prostate
K-562 leukemia = system: K-562 leukemia
NCI/ADR-RES ovarian = system: NCI/ADR-RES ovarian
NCI-H226 lung = system: NCI-H226 lung
U251 glioblastoma = system: U251 glioblastoma
UO-31 renal = system: UO-31 renal
MOLT-4 leukemia = system: MOLT-4 leukemia

O=C(Nc1cc(Oc2cc(F)c(NC(=O)C3(C(=O)Nc4ccc(F)cc4)CC3)cc2F)ccn1)C1CC1 showed a GI50 (SK-MEL-28 melanoma) of 1.4 µM, a TGI (SK-MEL-28 melanoma) of 2.78 µM and a GI50 (COLO 205 colon) of 0.66 µM. The TGI (COLO 205 colon) was 2.87 µM, the GI50 (MALME-3M melanoma) was 0.249 µM and the TGI (MALME-3M melanoma) was 1.1 µM. For the same molecule, the GI50 (NCI-H322M lung) was 1.6 µM, the TGI (NCI-H322M lung) was 6.88 µM and the GI50 (CAKI-1 renal) was 1.51 µM. For the same molecule, the TGI (CAKI-1 renal) was 3.28 µM, the GI50 (NCI-H522 lung) was 2.06 µM and the TGI (NCI-H522 lung) was 4.17 µM. It also gave a GI50 (HOP-92 NSCLC) of 2.34 µM, a TGI (HOP-92 NSCLC) greater than 100 µM and a GI50 (HCC-2998 colon) of 0.647 µM. For the same molecule, the TGI (HCC-2998 colon) was 4.23 µM, the GI50 (SF-539 CNS) was 1.46 µM and the TGI (SF-539 CNS) was 2.93 µM. The GI50 (DU-145 prostate) was 1.07 µM, the TGI (DU-145 prostate) was 61.4 µM and the GI50 (OVCAR-8 ovarian) was 1.95 µM. For the same molecule, the TGI (OVCAR-8 ovarian) was 9.88 µM, the GI50 (HL-60(TB) leukemia) was 1.15 µM and the TGI (HL-60(TB) leukemia) was 2.38 µM. For the same molecule, the GI50 (UACC-257 melanoma) was 1.11 µM, the TGI (UACC-257 melanoma) was 2.68 µM and the GI50 (SK-OV-3 ovarian) was 3.12 µM. It also gave a TGI (SK-OV-3 ovarian) of 9.2 µM, a GI50 (EKVX NSCLC) of 1.73 µM and a TGI (EKVX NSCLC) of 4.38 µM. For the same molecule, the GI50 (UACC-62 melanoma) was 0.394 µM, the TGI (UACC-62 melanoma) was 1.6 µM and the GI50 (SF-295 CNS) was 1.2 µM. The TGI (SF-295 CNS) was 5.14 µM, the GI50 (OVCAR-5 ovarian) was 2.35 µM and the TGI (OVCAR-5 ovarian) was 14.8 µM. For the same molecule, the GI50 (BT-549 breast) was 2.37 µM, the TGI (BT-549 breast) was 4.71 µM and the GI50 (HT29 colon) was 0.659 µM. For the same molecule, the TGI (HT29 colon) was 39 µM, the GI50 (NCI-H23 lung) was 0.173 µM and the TGI (NCI-H23 lung) was 0.578 µM. The GI50 (MDA-MB-468 breast) was 1.98 µM, the TGI (MDA-MB-468 breast) was 3.5 µM and the GI50 ([…]-0 renal) was 2 µM. For the same molecule, the TGI (786-0 renal) was 8.41 µM, the GI50 (SNB-19 CNS) was 2.75 µM and the TGI (SNB-19 CNS) was 11.4 µM. The GI50 (SK-MEL-5 melanoma) was 0.512 µM, the TGI (SK-MEL-5 melanoma) was 1.94 µM and the GI50 (SNB-75 CNS) was 1.62 µM. The TGI (SNB-75 CNS) was 3.03 µM, the GI50 (MCF7 breast) was 0.376 µM and the TGI (MCF7 breast) was 2.09 µM. For the same molecule, the GI50 (A498 renal) was 3.02 µM, the TGI (A498 renal) was 8.19 µM and the GI50 (T-47D breast) was 1.38 µM. The TGI (T-47D breast) was 5.17 µM, the GI50 (CCRF-CEM leukemia) was 0.445 µM and the TGI (CCRF-CEM leukemia) was 1.47 µM. The GI50 (IGROV1 ovarian) was 1.26 µM, the TGI (IGROV1 ovarian) was 6.93 µM and the GI50 (MDA-MB-231 breast) was 0.472 µM. The TGI (MDA-MB-231 breast) was 91.7 µM, the GI50 (HCT-116 colon) was 0.801 µM and the TGI (HCT-116 colon) was 54.9 µM. For the same molecule, the GI50 (RPMI-8226 leukemia) was 1.93 µM, the TGI (RPMI-8226 leukemia) was 3.37 µM and the GI50 (SW-620 colon) was 2.38 µM. For the same molecule, the TGI (SW-620 colon) was 6.96 µM, the GI50 (NCI-H460 NSCLC) was 1.98 µM and the TGI (NCI-H460 NSCLC) was 4.31 µM. It also gave a GI50 (OVCAR-4 ovarian) of 3.98 µM, a TGI (OVCAR-4 ovarian) of 8.26 µM and a GI50 (A549 NSCLC) of 1.7 µM. It also gave a TGI (A549 NSCLC) of 8.94 µM, a GI50 (SF-268 CNS) of 0.364 µM and a TGI (SF-268 CNS) of 0.962 µM. The GI50 (SN12C renal) was 1.65 µM, the TGI (SN12C renal) was 4.5 µM and the GI50 (M14 melanoma) was 0.349 µM. The TGI (M14 melanoma) was 1.43 µM, the GI50 (ACHN renal) was 1.66 µM and the TGI (ACHN renal) was 7.31 µM. The GI50 (HOP-62 NSCLC) was 0.306 µM, the TGI (HOP-62 NSCLC) was 1.62 µM and the TGI (KM12 colon) was 2.72 µM. It also gave a GI50 (HS 578T breast) of 1.35 µM, a TGI (HS 578T breast) of 2.71 µM and a GI50 (LOX IMVI melanoma) of 1.25 µM. It also gave a TGI (LOX IMVI melanoma) of 2.71 µM, a GI50 (TK-10 renal) of 3.13 µM and a TGI (TK-10 renal) of 20.8 µM. The GI50 (MDA-MB-435 melanoma) was 1.2 µM, the TGI (MDA-MB-435 melanoma) was 2.82 µM and the GI50 (OVCAR-3 ovarian) was 2.35 µM. For the same molecule, the TGI (OVCAR-3 ovarian) was 6 µM, the GI50 (RXF 393 renal) was 1.2 µM and the TGI (RXF 393 renal) was 2.51 µM. For the same molecule, the GI50 (HCT-15 colon) was 1.93 µM, the TGI (HCT-15 colon) was 5.65 µM and the GI50 (PC-3 prostate) was 3.3 µM. For the same molecule, the TGI (PC-3 prostate) was 8.13 µM, the GI50 (K-562 leukemia) was 0.32 µM and the TGI (K-562 leukemia) was 13.9 µM. The GI50 (NCI/ADR-RES ovarian) was 1.78 µM, the TGI (NCI/ADR-RES ovarian) was 6.99 µM and the GI50 (NCI-H226 lung) was 2.21 µM. It also gave a TGI (NCI-H226 lung) of 7.21 µM, a GI50 (U251 glioblastoma) of 2.5 µM and a TGI (U251 glioblastoma) of 6.32 µM. For the same molecule, the GI50 (UO-31 renal) was 2.07 µM, the TGI (UO-31 renal) was 7.07 µM and the GI50 (MOLT-4 leukemia) was 0.624 µM. It also gave a TGI (MOLT-4 leukemia) of 1.92 µM.
